Results reported in patent publication US20090023773A1, “COMPOSITIONS AND METHODS FOR MODULATING GATED ION CHANNELS” (PainCeptor Pharma Corporation, priority 2007, published 2009).

Experiments:
[1] = molecular target: T1, recombinant homomeric hASIC1a channels (Homo sapiens, UniProt P78348); assay: Two-electrode voltage clamp in Xenopus laevis oocytes expressing gated ion channels (Example 4); type: cell-based; details: for IC50: generated using oocytes as in Example 4
T1 construct: expressed in transfected cells; host or cells: Xenopus laevis oocytes (nuclear microinjection of expression vector such as pcDNA3)
T1 sequence (P78348 1-528): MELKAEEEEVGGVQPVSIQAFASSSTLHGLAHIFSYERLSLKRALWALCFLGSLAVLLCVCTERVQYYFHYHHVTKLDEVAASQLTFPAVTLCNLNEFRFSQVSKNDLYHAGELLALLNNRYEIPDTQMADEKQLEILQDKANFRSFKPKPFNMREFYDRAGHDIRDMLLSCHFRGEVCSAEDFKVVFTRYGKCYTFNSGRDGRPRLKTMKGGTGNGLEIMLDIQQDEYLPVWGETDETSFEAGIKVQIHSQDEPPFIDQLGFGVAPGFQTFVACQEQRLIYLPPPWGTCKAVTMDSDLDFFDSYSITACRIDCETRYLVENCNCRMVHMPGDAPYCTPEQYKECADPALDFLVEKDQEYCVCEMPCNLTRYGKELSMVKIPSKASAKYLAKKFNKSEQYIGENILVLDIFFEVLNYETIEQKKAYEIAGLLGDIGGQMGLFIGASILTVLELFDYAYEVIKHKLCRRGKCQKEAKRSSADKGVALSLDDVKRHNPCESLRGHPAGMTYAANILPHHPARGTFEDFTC

hASIC1a = molecular target: T2, hASIC1a (Homo sapiens, UniProt P78348); assay: Fluorescent calcium dye (Fluo-4-NW) assay in cells expressing hASIC1a (Example 1); type: cell-based; details: CHO cells stably expressing hASIC1a, mild acidic buffer, increasing concentrations; FIGS. 1A-1C
T2 construct: expressed in transfected cells
T2 sequence (P78348 1-528): T1 sequence (P78348 1-528)
Protocol: ASIC1a expressing CHO cells are grown in culture medium (DMEM with 10% FBS), in polystyrene culture flasks ([…]) at 37° C. in a humidified atmosphere of 5% CO2. Confluency of cells should be 70-90% on day of plating. Cells are rinsed with 10 ml of PBS and cells are re-suspended by addition of culture medium and trituration with a 25 ml pipette. The cells are seeded at a density of approximately 10^4 cells/ml (50 μl/well and then brought to a total volume of 150 μl/well with culture medium, following 30 minutes incubation) in black-walled, clear bottom, 96-well plates pre-treated with poly-D-lysine (from BD Bioscience). Plated cells were allowed to proliferate for 48-72 h before loading with dye. Fluo-4-NW (500 μg, DiscoveRX) is dissolved in 110 μl DMSO. The Fluo-4-NW stock solution (1000×) is diluted with the assay buffer. A water soluble stock solution (100×) of probenicid (DiscoveRX) and a stock solution (1000×) of pluronic acid (P-127, Molecular Probes) are also added in the loading buffer containing Fluo-4NW dye. The culture medium is aspirated from the wells, and 100 μl of the Fluo-4-NW loading solution is added to each well. The cells are incubated at 37° C. for 30 min. followed by 30 min. incubation at room temperature. The assay buffer contains 90 mM NaCl, 5 mM KCl, 4 mM CaCl2, 0.8 mM MgSO4, 50 mM NMDG, 5 mM Glucose-D, 10 mM HEPES, pH 7.4. After the loading time, the loading buffer is not removed and the fluorescence is measured in FlexStation™ (Molecular Devices, USA), or any other suitable equipment known to the skilled in the art. Temperature: 25° C. First addition: 50 μl test solution at a rate of 26 μl/sec and a starting height of 125 μl. […] Reading intervals: pre-incubation—120 sec. antagonist phase, addition of MES at 145 sec. and reading time with agonist 100 sec (total run time of 240 sec.). Fluorescence obtained after stimulation is corrected for the mean basal fluorescence (in modified Assay Buffer). […] Gated-channel activity was determined by measuring intracellular calcium variation using a fluorescent calcium dye (Fluo-4-NW).

[2] = test system: acute paw inflammation caused by intraplantar injection of λ-carrageenan; assay: Carrageenan model for pain (Example 8); type: in vivo; details: rat; 30 and 100 mg/kg SC, 30 min prior to carrageenan; 4 h post-carrageenan
Protocol: Acute inflammatory hyperalgesia is induced in rats by unilateral injection of 150 μl of a 3% solution of λ-carrageenan into the plantar surface of the left hind paw 3-5 hours prior to testing. Thermal hyperalgesia, mechanical allodynia, mechanical hyperalgesia, weight bearing asymmetry and paw inflammation were determined. Rats are pretreated with test compounds either administered intravenously (IV), by subcutaneous injection (SC) or by oral gavage (PO).
Thermal nociceptive thresholds are determined according to the method described elsewhere (Hargreaves et al., 1988). Briefly, through the glass surface, a radiant heat source (8V, 50 W projector bulb) is focused onto the plantar surface of the hind paw. The rat's paw-withdrawal latency to this stimulus is recorded to the nearest 0.1 s. Each latency score is an average of three trials, which are separated by at least 5 min. In all rats, both the injured and uninjured hind paws are similarly tested, allowing direct comparisons between inflamed and non-inflamed paws. […]
Mechanical hyperalgesia is determined by measuring the difference of withdrawal thresholds in response to increasing pressure in the inflamed vs contralateral paw using the Randall-Sellito Paw pressure meter (IITC Life Science) (Randall L O and Sellito J J., 1957). Briefly, rats are held in a contention jacket suspended by a stand and allowed to acclimate for 10 min. Then the tips of the paw pressure applicator are positioned close to the middle of the plantar and the dorsal area of the paw, avoiding the saphenous nerve innervations and an increasing pressure is applied until the rat removes it. Measures are performed in triplicate for each paw by alternating each paw with an interval of at least 1 min to avoid sensitization. […]
Carrageenan induced paw oedema is measured with a plethysmometer (IITC Life Science). Briefly, a mark is made on the ankles of the rat and the ipsi and contralateral paw are submerged 3 times into water up to the mark in order to determine the paw volume by calculation of water displacement.

SMILES | IC50 ([1]; Table 2) | further results
Cc1cc(OC2CCN(Cc3ccccc3F)C(C)C2)c2cccc(F)c2n1 (stereo not shown) [Compound 6, 8-Fluoro-4-[1-(2-fluoro-benzyl)-2-methyl-piperidin-4-yloxy]-2-methyl-quinoline] |  | IC50 ([1]; Table 1): 0.1 to 10 µM; reduction in the current evoked by a mild pH stimulation ([1]; acid-induced inward currents in oocytes injected with hASIC1a cDNA, FIGS. 2A-2C): clear dose-dependent reduction; inhibition of acid-induced hASIC1a activity (intracellular calcium variation) (hASIC1a): dose-dependently inhibited
COc1ccc(CC2CCC(Oc3cc(C)nc4c(F)cccc34)CC2)cc1 (stereo not shown) [Compound 69] | > 30 µM | 
COc1cccc(CN2CCC(Oc3cc(C)nc4c(F)cccc34)CC2)c1 [Compound 70] | 0.1 to 10 µM | 
COc1ncccc1CN1CCC(Oc2cc(C)nc3c(F)cccc23)CC1 [Compound 71] | 0.1 to 10 µM | 
COc1ccc(CN2CCC(Oc3cc(C)nc4c(F)cccc34)CC2)cn1 [Compound 72] | > 30 µM | 
Cc1cc(OC2CCN(Cc3ccncc3F)CC2)c2cccc(F)c2n1 [Compound 73] | 20.1 to 30 µM | 
Cc1cc(OC2CCN(Cc3ccccc3)C3CCCCC23)c2cccc(F)c2n1 (stereo not shown) [Compound 74] | 0.1 to 10 µM | 
Cc1cc(OC2CCCN(Cc3ccccc3)CC2)c2cccc(F)c2n1 (stereo not shown) [Compound 75] | > 30 µM | 
Cc1cc(OC2CCN(Cc3cccnc3CO)CC2)c2cccc(F)c2n1 [Compound 76] | > 30 µM | 
Cc1cc(OC2CCN(Cc3c(F)cccc3F)CC2)c2cccc(F)c2n1 [Compound 77] | 10.1 to 20 µM | 
Cc1cc(OC2CCN(Cc3ccc(Br)cc3F)CC2)c2cccc(F)c2n1 [Compound 78] | 20.1 to 30 µM | 
Cc1cc(OC2CCN(Cc3ccccc3)CC2)c2ccc(F)cc2n1 [Compound 80] | > 30 µM | 
COc1cc(OC)c(CN2CCC(Oc3cc(C)nc4c(F)cccc34)CC2)c(C(=O)O)c1 [Compound 81] | > 30 µM | 
Cc1cc(OC2CCN(Cc3ccccc3C(=O)O)C3CCCCC23)c2cccc(F)c2n1 (stereo not shown) [Compound 82] | > 30 µM | 
c1ccc(CN2CCC(Oc3nccc4ccccc34)CC2)cc1 [Compound 83] | > 30 µM | 
Cc1cc(OC2CCN(Cc3ccc4ccccc4c3)CC2)c2cccc(F)c2n1 [Compound 84] | > 30 µM | 
Cc1cc(OC2CCN(Cc3cccc(OCc4ccccc4)c3)CC2)c2ccccc2n1 [Compound 85] | > 30 µM | 

More lines, main results first:

IC50 ([1]; Table 2) | SMILES | further results
10.1 to 20 µM | Cc1cc(OC2CCN(Cc3ccc4c(c3)OCO4)CC2)c2ccccc2n1 [Compound 86] | 
10.1 to 20 µM | COc1ccc2cc(CN3CCC(Oc4cc(C)nc5c(F)cccc45)CC3)ccc2c1 [Compound 87] | 
0.1 to 10 µM | Cc1cc(OC2CCN(Cc3ccc(O)c(O)c3)CC2)c2ccccc2n1 [Compound 88] | 
> 30 µM | c1ccc(CN2CCC(Oc3c4ccccc4nc4ccccc34)CC2)cc1 [Compound 89] | 
≥ 30 µM | Cc1cc(OC2CCN(Cc3ccc(O)c(C(=O)O)c3)CC2)c2cccc(F)c2n1 [Compound 90] | 
> 30 µM | COc1cccc2c(OC3CCN(Cc4ccccc4C#N)CC3)cc(C)nc12 [Compound 91] | 
> 30 µM | Cc1cc(OC2CCN(Cc3cccc(C(=O)O)c3)CC2)c2cc(O)ccc2n1 [Compound 92] | 
20.1 to 30 µM | COc1cccc2c(OC3CCN(Cc4ccccc4-c4nnn[nH]4)CC3)cc(C)nc12 [Compound 93] | 
0.1 to 10 µM | Cc1cc(OC2CCN(Cc3ccccc3-c3nnn[nH]3)CC2)c2cc(F)ccc2n1 [Compound 94, 4-(1-(2-(1H-tetrazol-5-yl)benzyl)piperidin-4-yloxy)-6-fluoro-2-methylquinoline] | mechanical hyperalgesia [2]: dose-dependently reversed; size of the inflammation [2]: reduced; thermal hyperalgesia [2]: dose-dependently reversed
0.1 to 10 µM | COc1ccc(F)c2c(OC3CCN(Cc4ccccc4-c4nnn[nH]4)CC3)cc(C)nc12 [Compound 95] | 
> 30 µM | Cc1cc(OC2CCN(Cc3ccc(C(=O)O)cc3)CC2)c2cc(O)ccc2n1 [Compound 96] | 
0.1 to 10 µM | Cc1cc(OC2CCN(Cc3ccccc3-c3nnn[nH]3)CC2)c2cc(Cl)ccc2n1 [Compound 100] | 
